Like-named read-outs stand apart in the source and are kept apart here.
Target: T1, NSD2 (Homo sapiens, UniProt O96028)
T1 sequence (O96028 1-1365): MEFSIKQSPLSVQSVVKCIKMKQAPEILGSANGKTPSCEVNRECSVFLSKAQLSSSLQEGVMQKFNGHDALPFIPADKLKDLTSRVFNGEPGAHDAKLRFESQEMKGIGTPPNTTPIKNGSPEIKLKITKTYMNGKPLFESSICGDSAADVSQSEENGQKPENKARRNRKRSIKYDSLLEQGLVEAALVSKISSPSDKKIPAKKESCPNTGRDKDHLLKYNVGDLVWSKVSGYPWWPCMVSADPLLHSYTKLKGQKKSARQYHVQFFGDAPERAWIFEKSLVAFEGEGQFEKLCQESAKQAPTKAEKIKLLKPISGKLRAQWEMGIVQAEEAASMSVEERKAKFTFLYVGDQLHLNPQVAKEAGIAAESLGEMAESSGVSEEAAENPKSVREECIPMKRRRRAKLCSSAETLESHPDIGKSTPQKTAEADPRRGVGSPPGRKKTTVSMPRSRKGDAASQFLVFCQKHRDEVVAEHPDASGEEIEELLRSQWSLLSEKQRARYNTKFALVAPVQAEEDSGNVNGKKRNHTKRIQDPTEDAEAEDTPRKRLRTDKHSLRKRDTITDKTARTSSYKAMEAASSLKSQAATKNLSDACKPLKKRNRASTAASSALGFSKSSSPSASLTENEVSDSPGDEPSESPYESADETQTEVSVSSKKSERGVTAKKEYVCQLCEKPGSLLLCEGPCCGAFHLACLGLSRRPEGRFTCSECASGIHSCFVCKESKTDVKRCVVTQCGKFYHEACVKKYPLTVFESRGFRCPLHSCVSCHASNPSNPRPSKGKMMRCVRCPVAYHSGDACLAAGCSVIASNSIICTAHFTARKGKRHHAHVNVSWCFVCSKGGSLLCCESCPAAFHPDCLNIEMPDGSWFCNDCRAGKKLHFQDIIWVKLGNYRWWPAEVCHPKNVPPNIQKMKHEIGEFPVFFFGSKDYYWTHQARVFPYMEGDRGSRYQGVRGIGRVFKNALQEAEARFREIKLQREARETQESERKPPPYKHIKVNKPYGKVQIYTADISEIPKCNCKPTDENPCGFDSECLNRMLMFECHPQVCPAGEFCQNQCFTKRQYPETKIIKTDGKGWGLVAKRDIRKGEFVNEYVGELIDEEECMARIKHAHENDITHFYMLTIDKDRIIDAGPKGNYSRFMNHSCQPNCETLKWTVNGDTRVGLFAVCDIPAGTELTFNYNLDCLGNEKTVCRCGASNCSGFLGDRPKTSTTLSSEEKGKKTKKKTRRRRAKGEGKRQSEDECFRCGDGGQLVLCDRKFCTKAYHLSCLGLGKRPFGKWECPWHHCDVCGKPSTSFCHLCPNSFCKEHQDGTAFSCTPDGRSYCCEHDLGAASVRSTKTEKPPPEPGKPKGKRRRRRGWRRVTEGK
Assay: Compound screening: NSD2 degradation by immunoblotting in VCaP cells
Settings: VCaP, 24 h

[1] = read-out: 2.0 μM Degradation % (VCaP)

Procedure: After treatment, the cultured cells were collected and rinsed with phosphate-buffered saline (PBS) in room temperature. The cells were treated with RIPA buffers (ThermoFisher Scientific) supplemented with Halt Protease and Phosphatase Inhibitor Cocktail (ThermoFisher Scientific). After sonication and centrifugation, the total amount of protein in the cell lysates was measured by Pierce Bovine Serum Albumin Standard Pre-Diluted Set (ThermoFisher Scientific). […] After incubated with HRP-conjugated secondary antibodies, the membranes were developed with ECL Prime Western Blotting Detection Reagent (cytiva) and imaged on Odyssey Fc Imager (LiCOR Biosciences).
Western blot was then performed as previously described to detect NSD2 degradation.

Compound	Dmax at 2 µM [1]	Dmax at 2 µM (read-out: % Degradation)
O=C1CCC(N2C(=O)c3cccc(NCCCCCCNC(=O)c4ccc(NC(=O)c5ccc(CN(C(=O)c6ccc7c(c6)OCC(=O)N7)C6CC6)cc5)cc4)c3C2=O)C(=O)N1 (stereo not drawn) [10c, N-Cyclopropyl-N-(4-((4-((6-((2-(2,6-dioxopiperidin-3-yl)-1,3-dioxoisoindolin-4-yl)amino)hexyl)carbamoyl)phenyl)carbamoyl)benzyl)-3-oxo-3,4-dihydro-2H-benzo[b][1,4]oxazine-7-carboxamide]	25%	25%
O=C1CCC(N2C(=O)c3cccc(NCCCCCCCCNC(=O)c4ccc(NC(=O)c5ccc(CN(C(=O)c6ccc7c(c6)OCC(=O)N7)C6CC6)cc5)cc4)c3C2=O)C(=O)N1 (stereo not drawn) [10d, N-Cyclopropyl-N-(4-((4-((8-((2-(2,6-dioxopiperidin-3-yl)-1,3-dioxoisoindolin-4-yl)amino)octyl)carbamoyl)phenyl)carbamoyl)benzyl)-3-oxo-3,4-dihydro-2H-benzo[b][1,4]oxazine-7-carboxamide]	13%	13%
O=C1CCC(N2C(=O)c3ccc(NCCCCCNC(=O)c4ccc(NC(=O)c5ccc(CN(C(=O)c6ccc7c(c6)OCC(=O)N7)C6CC6)cc5)cc4)cc3C2=O)C(=O)N1 (stereo not drawn) [10h, N-Cyclopropyl-N-(4-((4-((5-((2-(2,6-dioxopiperidin-3-yl)-1,3-dioxoisoindolin-5-yl)amino)pentyl)carbamoyl)phenyl)carbamoyl)benzyl)-3-oxo-3,4-dihydro-2H-benzo[b][1,4]oxazine-7-carboxamide]	80%	80%
O=C1CCC(N2C(=O)c3ccc(NCCCCCCCCNC(=O)c4ccc(NC(=O)c5ccc(CN(C(=O)c6ccc7c(c6)OCC(=O)N7)C6CC6)cc5)cc4)cc3C2=O)C(=O)N1 (stereo not drawn) [10j, N-Cyclopropyl-N-(4-((4-((8-((2-(2,6-dioxopiperidin-3-yl)-1,3-dioxoisoindolin-5-yl)amino)octyl)carbamoyl)phenyl)carbamoyl)benzyl)-3-oxo-3,4-dihydro-2H-benzo[b][1,4]oxazine-7-carboxamide]	90%	90%
CN(C(=O)c1ccc(NC(=O)c2ccc(CN(C(=O)c3ccc4c(c3)OCC(=O)N4)C3CC3)cc2)cc1)C1CCN(c2ccc3c(c2)C(=O)N(C2CCC(=O)NC2=O)C3=O)CC1 (stereo not drawn) [10o, N-Cyclopropyl-N-(4-((4-((1-(2-(2,6-dioxopiperidin-3-yl)-1,3-dioxoisoindolin-5-yl)piperidin-4-yl)(methyl)carbamoyl)phenyl)carbamoyl)benzyl)-3-oxo-3,4-dihydro-2H-benzo[b][1,4]oxazine-7-carboxamide]	89%	89%
O=C1CCC(N2C(=O)c3ccc(N4CCCC(NC(=O)c5ccc(NC(=O)c6ccc(CN(C(=O)c7ccc8c(c7)OCC(=O)N8)C7CC7)cc6)cc5)C4)cc3C2=O)C(=O)N1 (stereo not drawn) [10q, N-Cyclopropyl-N-(4-((4-((1-(2-(2,6-dioxopiperidin-3-yl)-1,3-dioxoisoindolin-5-yl)piperidin-3-yl)carbamoyl)phenyl)carbamoyl)benzyl)-3-oxo-3,4-dihydro-2H-benzo[b][1,4]oxazine-7-carboxamide]	3%	3%
O=C1CCC(N2C(=O)c3cccc(NCCCCNC(=O)c4ccc(NC(=O)c5ccc(CN(C(=O)c6ccc7c(c6)OCC(=O)N7)C6CC6)cc5)cc4)c3C2=O)C(=O)N1 (stereo not drawn) [compound 10b, N-Cyclopropyl-N-(4-((4-((4-((2-(2,6-dioxopiperidin-3-yl)-1,3-dioxoisoindolin-4-yl)amino)butyl)carbamoyl)phenyl)carbamoyl)benzyl)-3-oxo-3,4-dihydro-2H-benzo[b][1,4]oxazine-7-carboxamide]	25%	25%
O=C1CCC(N2C(=O)c3ccc(NCCCNC(=O)c4ccc(NC(=O)c5ccc(CN(C(=O)c6ccc7c(c6)OCC(=O)N7)C6CC6)cc5)cc4)cc3C2=O)C(=O)N1 (stereo not drawn) [compound 10f, N-Cyclopropyl-N-(4-((4-((3-((2-(2,6-dioxopiperidin-3-yl)-1,3-dioxoisoindolin-5-yl)amino)propyl)carbamoyl)phenyl)carbamoyl)benzyl)-3-oxo-3,4-dihydro-2H-benzo[b][1,4]oxazine-7-carboxamide]	94%	94%

The remaining lines, values ahead:

Dmax at 2 µM [1]	Dmax at 2 µM (read-out: % Degradation)	Compound
70%	70%	O=C1CCC(N2C(=O)c3ccc(NCCNC(=O)c4ccc(NC(=O)c5ccc(CN(C(=O)c6ccc7c(c6)OCC(=O)N7)C6CC6)cc5)cc4)cc3C2=O)C(=O)N1 (stereo not drawn) [10e, N-cyclopropyl-N-(4-((4-((2-((2-(2,6-dioxopiperidin-3-yl)-1,3-dioxoisoindolin-5-yl)amino)ethyl)carbamoyl)phenyl)carbamoyl)benzyl)-3-oxo-3,4-dihydro-2H-benzo[b][1,4]oxazine-7-carboxamide]
92%	92%	O=C1CCC(N2C(=O)c3ccc(NCCCCNC(=O)c4ccc(NC(=O)c5ccc(CN(C(=O)c6ccc7c(c6)OCC(=O)N7)C6CC6)cc5)cc4)cc3C2=O)C(=O)N1 (stereo not drawn) [10g, N-Cyclopropyl-N-(4-((4-((4-((2-(2,6-dioxopiperidin-3-yl)-1,3-dioxoisoindolin-5-yl)amino)butyl)carbamoyl)phenyl)carbamoyl)benzyl)-3-oxo-3,4-dihydro-2H-benzo[b][1,4]oxazine-7-carboxamide]
83%	83%	O=C1CCC(N2C(=O)c3ccc(NCCCCCCNC(=O)c4ccc(NC(=O)c5ccc(CN(C(=O)c6ccc7c(c6)OCC(=O)N7)C6CC6)cc5)cc4)cc3C2=O)C(=O)N1 (stereo not drawn) [10i, N-Cyclopropyl-N-(4-((4-((6-((2-(2,6-dioxopiperidin-3-yl)-1,3-dioxoisoindolin-5-yl)amino)hexyl)carbamoyl)phenyl)carbamoyl)benzyl)-3-oxo-3,4-dihydro-2H-benzo[b][1,4]oxazine-7-carboxamide]
41%	41%	O=C1CCC(N2C(=O)c3ccc(N4CCN(C(=O)c5ccc(NC(=O)c6ccc(CN(C(=O)c7ccc8c(c7)OCC(=O)N8)C7CC7)cc6)cc5)CC4)cc3C2=O)C(=O)N1 (stereo not drawn) [10m, N-Cyclopropyl-N-(4-((4-(4-(2-(2,6-dioxopiperidin-3-yl)-1,3-dioxoisoindolin-5-yl)piperazine-1-carbonyl)phenyl)carbamoyl)benzyl)-3-oxo-3,4-dihydro-2H-benzo[b][1,4]oxazine-7-carboxamide]
74%	74%	O=C1CCC(N2C(=O)c3ccc(N4CCC(CNC(=O)c5ccc(NC(=O)c6ccc(CN(C(=O)c7ccc8c(c7)OCC(=O)N8)C7CC7)cc6)cc5)CC4)cc3C2=O)C(=O)N1 (stereo not drawn) [10n, N-Cyclopropyl-N-(4-((4-(((1-(2-(2,6-dioxopiperidin-3-yl)-1,3-dioxoisoindolin-5-yl)piperidin-4-yl)methyl)carbamoyl)phenyl)carbamoyl)benzyl)-3-oxo-3,4-dihydro-2H-benzo[b][1,4]oxazine-7-carboxamide]
30%	30%	CC1(NC(=O)c2ccc(NC(=O)c3ccc(CN(C(=O)c4ccc5c(c4)OCC(=O)N5)C4CC4)cc3)cc2)CCN(c2ccc3c(c2)C(=O)N(C2CCC(=O)NC2=O)C3=O)CC1 (stereo not drawn) [10p, N-Cyclopropyl-N-(4-((4-((1-(2-(2,6-dioxopiperidin-3-yl)-1,3-dioxoisoindolin-5-yl)-4-methylpiperidin-4-yl)carbamoyl)phenyl)carbamoyl)benzyl)-3-oxo-3,4-dihydro-2H-benzo[b][1,4]oxazine-7-carboxamide]
17%	17%	O=C1CCC(N2C(=O)c3cccc(NCCNC(=O)c4ccc(NC(=O)c5ccc(CN(C(=O)c6ccc7c(c6)OCC(=O)N7)C6CC6)cc5)cc4)c3C2=O)C(=O)N1 (stereo not drawn) [compound 10a, N-Cyclopropyl-N-(4-((4-((2-((2-(2,6-dioxopiperidin-3-yl)-1,3-dioxoisoindolin-4-yl)amino)ethyl)carbamoyl)phenyl)carbamoyl)benzyl)-3-oxo-3,4-dihydro-2H-benzo[b][1,4]oxazine-7-carboxamide]
